Results as given in PMC9133036 (Nature Communications, 2022).
Several values for one entry are separate records, joined by “and”; a condition that tells them apart may be missing. Equal values may be shown once.

Legend:
Assay type in all cases: cell-based
OX2R Y232A = biological target: T1, OX2R Y232A (Homo sapiens, UniProt O43614, Y232A); test: β-arrestin PathHunter assay, OX2R Y232A; settings: β-arrestin recruitment
T1 construct: expressed in transfected cells; host or cells: CHO-K1 stably expressing EA β-arrestin2
Experimental: (§1) β-Arrestin recruitment activity was measured by using the PathHunter system (DiscoveRX) according to the manufacturer’s instruction. Receptor constructs used were the full-length wild-type (or mutant) human OX2R sequences cloned into pCMV-ProLink (DiscoveRX). CHO-K1 cells stably expressing EA β-arrestin2 (DiscoveRX) were plated on 384 well white plates (Thermo Fisher) at 4000 cells/well in HamF12 (Wako Pure Chemical Industries) supplemented with 10% fetal bovine serum (Corning) and penicillin-streptomycin (Wako Pure Chemical Industries) and incubated overnight at 37 °C under 5% CO2. Cells were transfected with plasmids encoding wild type or each mutant ProLink-tagged human OX2R using FuGENE HD (Promega). […] Detection reagent was added and incubated for 1 h at room temperature. Luminescent signal was detected using an EnVision plate reader (PerkinElmer). β-arrestin assays on different constructs were performed in two or three independent experiments (each done in quadruplicate). Dose response curves (shown in Supplementary Fig. 8) were fitted to the three-parameter model ‘log(agonist) vs response’ in GraphPad Prism to determine pEC50 values.

OX1R S103T = biological target: T2, OX1R S103T (Homo sapiens, UniProt O43613, S103T); test: IP accumulation assay, OX1R S103T
T2 construct: FLAG; expressed in transfected cells; host or cells: HEK293
T2 sequence (O43613 1-425 S103T): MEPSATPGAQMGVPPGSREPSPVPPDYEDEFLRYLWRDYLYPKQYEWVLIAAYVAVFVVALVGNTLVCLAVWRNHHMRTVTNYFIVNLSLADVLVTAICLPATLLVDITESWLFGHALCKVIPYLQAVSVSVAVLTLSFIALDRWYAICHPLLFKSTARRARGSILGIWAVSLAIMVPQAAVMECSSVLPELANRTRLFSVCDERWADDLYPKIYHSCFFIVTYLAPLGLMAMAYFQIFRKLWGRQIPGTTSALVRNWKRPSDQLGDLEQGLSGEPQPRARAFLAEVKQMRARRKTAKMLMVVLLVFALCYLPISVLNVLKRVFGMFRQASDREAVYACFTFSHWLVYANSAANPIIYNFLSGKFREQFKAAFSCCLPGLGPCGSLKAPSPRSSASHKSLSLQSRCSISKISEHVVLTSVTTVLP
Source text: The IP assay was adapted from a prior precedent. HEK293 cells were maintained in DMEM-high glucose (Millipore Sigma) supplemented with 5% fetal bovine serum (Corning) and penicillin-streptomycin (Millipore Sigma). Receptor constructs used were the full-length wild-type (or mutant) human OX1R and OX2R sequences cloned into pCDNA3. To enhance the Emax in the IP assay, a plasmid encoding full-length human Gαq subunit[66] was co-transfected into HEK293 cells with plasmids encoding orexin receptor constructs using Lipofectamine 3000 (Thermo Fisher). 24 h after transfection, the cells were plated on poly-D-lysine coated (Millipore Sigma) tissue culture-treated 96 well white plates with clear bottoms (Perkin Elmer) at 30,000 cells per well in Inositol-free DMEM (MP Biomedicals) supplemented with 5% fetal bovine serum, 4 mM L-glutamine (Millipore Sigma), penicillin-streptomycin, and about 5 uCi (5 ul) per ml myo-[2-3H] inositol (Perkin Elmer). The following day, the media was replaced with agonists that were diluted in HBSS (Millipore Sigma) containing 10 mM lithium chloride (Millipore Sigma) and incubated at 37 °C for 45 min. Then agonists were removed and cells were lysed on ice for 30 min with 10 mM formic acid (Millipore Sigma). 1.25 mg of poly-lysine coated YSI SPA beads (Perkin Elmer) was added to each well. The plates were mixed on an orbital shaker for 30 min. The plates were read on a MicroBeta scintillation counter (Perkin Elmer) the following day. IP accumulation assays on different constructs were performed in n ≥ 3 independent experiments (each done in duplicate), where n is shown in Supplementary Table 2.

OX2R Q187A = biological target: T3, OX2R Q187A (Homo sapiens, UniProt O43614, Q187A); test: β-arrestin PathHunter assay, OX2R Q187A; settings: β-arrestin recruitment
T3 construct: expressed in transfected cells; host or cells: CHO-K1 stably expressing EA β-arrestin2
Experimental: as §1

human OX2R wild type = biological target: T4, human OX2R wild type (Homo sapiens, UniProt O43614); test: β-arrestin PathHunter assay, OX2R WT; design: expressed in transfected cells; host or cells: CHO-K1 stably expressing EA β-arrestin2; settings: listed as OxB
T4 sequence (O43614 1-444): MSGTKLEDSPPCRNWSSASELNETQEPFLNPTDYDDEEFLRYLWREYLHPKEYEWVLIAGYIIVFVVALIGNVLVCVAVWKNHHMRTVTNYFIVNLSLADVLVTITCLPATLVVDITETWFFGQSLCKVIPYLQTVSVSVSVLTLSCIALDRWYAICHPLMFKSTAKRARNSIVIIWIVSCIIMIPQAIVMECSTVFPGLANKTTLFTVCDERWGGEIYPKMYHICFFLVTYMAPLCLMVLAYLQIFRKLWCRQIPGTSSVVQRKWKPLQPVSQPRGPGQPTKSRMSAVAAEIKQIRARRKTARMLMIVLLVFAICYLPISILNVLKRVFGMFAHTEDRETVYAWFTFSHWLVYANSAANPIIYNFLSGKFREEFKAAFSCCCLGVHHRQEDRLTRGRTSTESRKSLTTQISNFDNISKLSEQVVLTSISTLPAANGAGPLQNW
Experimental: β-Arrestin recruitment activity was measured by using the PathHunter system (DiscoveRX) according to the manufacturer’s instruction. Receptor constructs used were the full-length wild-type (or mutant) human OX2R sequences cloned into pCMV-ProLink (DiscoveRX). […] Cells were transfected with plasmids encoding wild type or each mutant ProLink-tagged human OX2R using FuGENE HD (Promega). […] Detection reagent was added and incubated for 1 h at room temperature. Luminescent signal was detected using an EnVision plate reader (PerkinElmer). β-arrestin assays on different constructs were performed in two or three independent experiments (each done in quadruplicate). Dose response curves (shown in Supplementary Fig. 8) were fitted to the three-parameter model ‘log(agonist) vs response’ in GraphPad Prism to determine pEC50 values.

T1 sequence (O43614 whole entry Y232A): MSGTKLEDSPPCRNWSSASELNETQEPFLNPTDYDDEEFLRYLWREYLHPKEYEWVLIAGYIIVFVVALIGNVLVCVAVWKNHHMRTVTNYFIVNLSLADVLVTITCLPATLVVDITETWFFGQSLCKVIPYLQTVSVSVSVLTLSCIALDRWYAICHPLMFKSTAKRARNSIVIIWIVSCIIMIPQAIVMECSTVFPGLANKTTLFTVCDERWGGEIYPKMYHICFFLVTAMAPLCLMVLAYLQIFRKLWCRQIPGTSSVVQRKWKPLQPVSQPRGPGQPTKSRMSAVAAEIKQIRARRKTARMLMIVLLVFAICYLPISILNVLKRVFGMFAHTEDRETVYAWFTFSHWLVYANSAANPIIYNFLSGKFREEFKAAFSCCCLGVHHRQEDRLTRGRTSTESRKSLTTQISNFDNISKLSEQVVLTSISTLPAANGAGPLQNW
T3 sequence (O43614 whole entry Q187A): as the sequence (O43614 whole entry Y232A) above, with Q187A, A232Y counted along it

Row | EC50 (OX2R Y232A) | activation at 100 µM (OX1R S103T; 0.75 h, TAK-925 conc (log, M) -4.00) | activation at 11.2 µM (OX1R S103T; 0.75 h, TAK-925 conc (log, M) -4.95) | activation at 3.72 µM (OX1R S103T; 0.75 h, TAK-925 conc (log, M) -5.43) | activation at 1.23 µM (OX1R S103T; 0.75 h, TAK-925 conc (log, M) -5.91) | activation at 0.0457 µM (OX1R S103T; 0.75 h, TAK-925 conc (log, M) -7.34) | EC50 (OX1R S103T; IP accumulation) | Emax (OX1R S103T; relative to OX1R S103T/A127T/TAK-925) | EC50 (OX2R Q187A) | Compound | beta-arrestin recruitment fold change (human OX2R wild type; OxB concentration -6.00 (log, M)) | beta-arrestin recruitment fold change (human OX2R wild type; OxB concentration -6.52 (log, M)) | beta-arrestin recruitment fold change (human OX2R wild type; OxB concentration -7.00 (log, M)) | beta-arrestin recruitment fold change (human OX2R wild type; OxB concentration -7.52 (log, M)) | beta-arrestin recruitment fold change (human OX2R wild type; OxB concentration -8.00 (log, M)) | beta-arrestin recruitment fold change (human OX2R wild type; OxB concentration -8.52 (log, M)) | beta-arrestin recruitment fold change (human OX2R wild type; OxB concentration -9.00 (log, M)) | beta-arrestin recruitment fold change (human OX2R wild type; OxB concentration -10.00 (log, M))
1 | 8.5 µM | 122% | 88.4% | 57.1% | 21.9% | 9.04% | 5.3 µM | 130 | 3.2 µM | COC(=O)N1CCC[C@H](NS(C)(=O)=O)[C@@H]1CO[C@H]1CC[C@@H](c2ccccc2)CC1 [TAK-925, methyl (2R,3S)−3-[(methylsulfonyl)amino]−2-{[(cis−4-phenylcyclohexyl)oxy]methyl}piperidine-1-carboxylate] | – | – | – | – | – | – | – | –
2 | – | – | – | – | – | – | – | – | – | orexin B | 25.382 fold and 21.415 fold and 21.711 fold and 14.809 fold | 25.694 fold and 21.531 fold and 23.664 fold and 15.569 fold | 27.509 fold and 22.224 fold and 24.930 fold and 18.908 fold | 19.878 fold and 18.553 fold and 19.712 fold and 17.639 fold | 16.213 fold and 13.992 fold and 16.040 fold and 14.141 fold | 11.509 fold and 10.398 fold and 11.514 fold and 8.169 fold | 4.809 fold and 5.512 fold and 5.245 fold and 5.387 fold | 1.518 fold and 1.553 fold and 1.554 fold and 2.080 fold
